The text below walks through data of US8729077B2, “Anti-viral compounds, compositions, and methods of use” (GlaxoSmithKline LLC, priority 2008, dated 2014).

SMILES strings stand for the structures.

The subject of test [1] is HCV genotype 1b subgenomic replicon. The experiment in a line: HCV replicon assay, genotype 1b (luciferase, ET cell line). It counts as cell-based. To be noted: Hepatitis C virus; genotype 1b replicon (ET cell line); luciferase activity measured 48 hours later; 10 point dose response; read-out: 1B pEC50 (converted). As to the method: (§1) Protocol for Testing and Data Analysis of Compounds in the HCV Replicon Assay
(§2) Compounds were assayed for activity against HCV using the genotype 1a and 1b subgenomic replicon model systems. Stable cell lines bearing the genotype 1a and 1b replicons were used for screening of compounds. Both replicons are bicistronic and contain the firefly luciferase gene. The ET cell line is stably transfected with RNA transcripts harboring a I389luc-ubi-neo/NS3-3′/ET replicon with firefly luciferase-ubiquitin-neomycin phosphotransferase fusion protein and EMCV-IRES driven NS3-5B polyprotein containing the cell culture adaptive mutations (E1202G; T1280I; K1846T) (Krieger at al, 2001 and unpublished). The genotype 1a replicon is a stable cell line licensed from Apath LLC, modified to contain the firefly luciferase gene. The cells were grown in DMEM, supplemented with 10% fetal calf serum, 2 mM Glutamine, Penicillin (100 IU/mL)/Streptomycin (100 μg/mL), 1× nonessential amino acids, and 250-500 μg/mL G418 (“Geneticin”). They were all available through Life Technologies (Bethesda, Md.). The cells were plated at 0.5×10^4 cells/well in 384 well plates containing compounds. The final concentration of compounds ranged between 0.03 pM to […] and the final DMSO concentration of 0.5-1%.
(§3) Luciferase activity was measured 48 hours later by adding a Steady glo (Promega, Madison, Wis.). Percent inhibition of replication data was plotted relative to no compound control. Under the same condition, cytotoxicity of the compounds was determined using cell titer glo (Promega, Madison, Wis.). EC50s were determined from a 10 point dose response curve using 3-4-fold serial dilution for each compound, which spans a concentration range >1000 fold. BioAssay determines the level of inhibition for each compound by normalizing cross-talk corrected plate values against the negative (low or background, cells with no compound present) and positive (high DMSO, no cells) controls to determine Percent Inhibition:
(§4) These normalized values are exported to EC50 where they are plotted against the molar compound concentrations using the standard four parameter logistic equation:
(§5) A=minimum y D=slope factor
(§6) B=maximum y x=log10 compound concentration [M]
For orientation: A replicon is a self-replicating genome or part of one, used to study replication in cells.

The subject of test [2] is HCV genotype 1a subgenomic replicon. The experiment in a line: HCV replicon assay, genotype 1a (luciferase). Format: cell-based. To be noted: Hepatitis C virus; genotype 1a replicon stable cell line; luciferase activity measured 48 hours later; 10 point dose response; read-out: 1A pEC50 (converted). Here is the method:
as §1, §2, §3, §4, §5, §6

For the compound `CN(C)[C@@H](C(=O)N1CCC[C@H]1c1nc(-c2ccc(-c3ccc(-c4c[nH]c([C@@H]5COC6(CCOCC6)N5C(=O)OCc5ccccc5)n4)cc3)cc2)c[nH]1)c1ccccc1` [example 1], the figures for the EC50 in test [1] and in test [2] were 0.00347 nM and 1.58 nM, respectively.
In the same order, the values of `CC=C1C[C@@H](c2ncc(-c3ccc(-c4ccc(-c5cnc([C@@H]6CCCN6C(=O)C(NC(=O)OC)C(C)C)[nH]5)cc4)cc3)[nH]2)N(C(=O)C(NC(=O)OC)C(C)C)C1` (stereo partly drawn) [example 12, (1-{(S)-2-[5-(4′-{2-[(S)-4-Ethylidene-1-(2-methoxycarbonylamino-3-methyl-butyryl)-pyrrolidin-2-yl]-3H-imidazol-4-yl}-biphenyl-4-yl)-1H-imidazol-2-yl]-pyrrolidine-1-carbonyl}-2-methyl-propyl)-carbamic acid methyl ester] are 0.00437 nM and 0.0158 nM.
For `COC(=O)N[C@H](C(=O)N1CCC[C@H]1c1ncc(-c2ccc(-c3ccc(-c4cnc([C@@H]5C=C(C)CN5C(=O)[C@H](NC(=O)OC)C(C)C)[nH]4)cc3)cc2)[nH]1)C(C)C` [example 9, (1-{(S)-2-[5-(4′-{2-[(S)-1-((R)-2-Methoxycarbonylamino-3-methyl-butyryl)-4-methyl-2,5-dihydro-1H-pyrrol-2-yl]-3H-imidazol-4-yl}-biphenyl-4-yl)-1H-imidazol-2-yl]-pyrrolidine-1-carbonyl}-2-methyl-propyl)-carbamic acid methyl ester] the same measures were 0.00776 nM and 0.0158 nM.
Consider `CCC1=C[C@@H](c2ncc(-c3ccc(-c4ccc(-c5cnc([C@@H]6CCCN6C(=O)C(NC(=O)OC)C(C)C)[nH]5)cc4)cc3)[nH]2)N(C(=O)[C@H](NC(=O)OC)C(C)C)C1` (stereo partly drawn) [example 10, (1-{(S)-2-[5-(4′-{2-[(S)-4-Ethyl-1-((R)-2-methoxycarbonylamino-3-methyl-butyryl)-2,5-dihydro-1H-pyrrol-2-yl]-3H-imidazol-4-yl}-biphenyl-4-yl)-1H-imidazol-2-yl]-pyrrolidine-1-carbonyl]-2-methyl-propyl)-carbamic acid methyl ester], for which the EC50 is 0.00603 nM in test [1] and 0.0316 nM in test [2].
As for `COC(=O)N[C@H](C(=O)N1CC(C2CC2)=C[C@H]1c1ncc(-c2ccc(-c3ccc(-c4cnc([C@@H]5CCCN5C(=O)[C@@H](NC(=O)OC)C(C)C)[nH]4)cc3)cc2)[nH]1)C(C)C` [example 11, methyl[(1S)-1-({(2S)-2-[4-(4′-{2-[(2S)-4-cyclopropyl-1-((2S)-3-methyl-2-{[(methyloxy)carbonyl]amino}butanoyl)-2,5-dihydro-1H-pyrrol-2-yl]-1H-imidazol-4-yl}-4-biphenylyl)-1H-imidazol-2-yl]-1-pyrrolidinyl}carbonyl)-2-methylpropyl]carbamate], the EC50 in test [1] was 0.00468 nM; in test [2], 0.0126 nM.
